Test system: selectively-bred alcohol preferring rats
Test: Alcohol Preferring Rats In Vivo Model (two-bottle choice)
Parameters: species or system rat
Settings: for 6 hr Preference (alcohol preference) / 6 hr Ethanol (alcohol intake) / 24 hr Ethanol (alcohol intake) / 24 hr Preference (alcohol preference): mean ± SEM; for 6 hr Ethanol (alcohol intake): 6 h after treatment
Protocol: Adult male selectively-bred alcohol preferring rats (which are known in the art to be useful for the study of the effect of test compounds on voluntary alcohol intake) were grouped into three groups: vehicle and Compound #1 (50 and 100 mg/kg, p.o.). Rats were housed individually in wire mesh cages under a constant room temperature of 22±1° C. and 12:12 light-dark cycle (8:00-20:00, dark). The animals were fed Agway Prolab Rat/Mouse/Hamster 3000 formula and water ad libitum.
Alcohol intake was determined using the standard two-bottle choice method. Animals were first given free access to water in a graduated Richter tube for 2 days. Then they were given access to only a solution of 10% (v/v) ethanol for 3 consecutive days. During this period animals became accustomed to drinking from Richter tubes and to the taste and pharmacological effects of alcohol. Thereafter, they were given free access to both water and a solution of 10% alcohol for at least 4 consecutive weeks and throughout the study period. Rats had free access to food. Water and alcohol intake were recorded at 4, 6 and 24 hours after the treatment, whereas food intake was measured at 24 hour. Animals' body weight was measured every day.
After establishment of a stable baseline for alcohol, food, and water intake, rats were administered either vehicle or Compound #1 via oral gavage using a cross-over design with random assignment. To be able to compare the efficacy of these compounds on alcohol intake with an established FDA-approved drug, naltrexone, was included as a positive control. Same rats were given an oral dose of naltrexone (20 mg/kg). The interval between treatments was at least 3 days. Alcohol and water intake were recorded 4, 6 and 24 h after the drug administration and food intake was recorded at 24 hr. A total of 8-10 animals per group were used.
The results below are presented as means±SEM. Alcohol intake (g/kg) was calculated by multiplying the volume of alcohol consumed in ml by 10% and 0.7893 (ethanol density)/body weight in kg. Alcohol preference, expressed as percentage, was calculated as follows: (volume of alcohol consumed in ml/total fluid intake in ml)×100 (Rezvani and Grady, 1994; Rezvani et al., 1997). Statistical differences between drug-treated and control groups were determined by using ANOVA and Tukey Student's t test for multiple comparison.

| SMILES | 6 hr Preference (alcohol preference) (50 mg/kg p.o.) | 6 hr Ethanol (alcohol intake) (50 mg/kg p.o.) | 24 hr Ethanol (alcohol intake) (50 mg/kg p.o.) | 24 hr Preference (alcohol preference) (50 mg/kg p.o.) | 6 hr Preference (alcohol preference) (100 mg/kg p.o.) | 6 hr Ethanol (alcohol intake) (100 mg/kg p.o.) | 24 hr Ethanol (alcohol intake) (100 mg/kg p.o.) | 24 hr Preference (alcohol preference) (100 mg/kg p.o.) | duration of reduction in ethanol consumption compared with naltrexone (in words) (100 mg/kg vs naltrexone 20 mg/kg) | effect on ethanol consumption (in words) (at 6 h (50 and 100 mg/kg; p<0.05) and 24 h (100 mg/kg; p<0.05) post-dosing) | 6 hr Preference (alcohol preference) (naltrexone 20 mg/kg oral) | 6 hr Ethanol (alcohol intake) (naltrexone 20 mg/kg oral) | 24 hr Ethanol (alcohol intake) (naltrexone 20 mg/kg oral) | 24 hr Preference (alcohol preference) (naltrexone 20 mg/kg oral) |
| --- | --- | --- | --- | --- | --- | --- | --- | --- | --- | --- | --- | --- | --- | --- |
| NS(=O)(=O)NCc1csc2ccccc12 [Compound #1, N-(benzo[b]thien-3-ylmethyl)-sulfamide] | 71 ± 11% | 1.06 ± 0.25 g/kg | 4.48 ± 0.62 g/kg | 74 ± 9% | 67 ± 11% | 0.79 ± 0.24 g/kg | 4.08 ± 0.71 g/kg | 79 ± 9% | longer lasting than naltrexone | decreased ethanol consumption |  |  |  |  |
| O=C1CC[C@@]2(O)[C@H]3Cc4ccc(O)c5c4[C@@]2(CCN3CC2CC2)[C@H]1O5 [Naltrexone, naltrexone, reference compound] |  |  |  |  |  |  |  |  |  |  | 64 ± 12% | 0.77 ± 0.24 g/kg | 4.48 ± 0.57 g/kg | 76 ± 9% |

From patent US20070191453A1, “USE OF BENZO-HETEROARYL SULFAMIDE DERIVATIVES FOR THE TREATMENT OF SUBSTANCE ABUSE AND ADDICTION” (priority 2006, published 2007)
